{"source": "patent US11602518B2", "about": "“Lipidic furan, pyrrole, and thiophene compounds for use in the treatment of atrophic vaginitis” (Avoscience, LLC, priority 2016, dated 2023)", "tested_on": "female subjects diagnosed with vaginal atrophy", "assay": "Double blind placebo control study: tissue morphometry by vaginal biopsy after topical Formula I(n) capsules", "assay_type": "in vivo, human", "excerpt": "The histology and morphometry of vaginal atrophy is characterized by a reduction in dermal and epidermal thickness, dermal collagen content (hydroxyproline), the number of cells in the tissue (by DNA content and histology), and dermal and epidermal protein content as well as reduction in overall dermal metabolism as measured by [^14 C]-glucose. These parameters are all increased by the action of topical administration of Formula I(n).\nIn a double blind placebo control study, a baseline tissue morphometry was determined by biopsy on 20 female subjects diagnosed with vaginal atrophy. Subjects applied a capsule daily containing either Formula I(n) (3%) and avocado oil or simply a capsule of avocado oil alone.", "key": {"[1]": {"conditions": "biopsy after 60 days, daily capsule 3% in avocado oil"}, "[2]": {"conditions": "biopsy after 60 days, daily capsule 3% in avocado oil, over control"}}}
{"smiles": "CCCCC/C=C\\C/C=C\\CCCCCCCc1ccco1", "note": "[Formula I(n), 2-(8Z,11Z-heptadecadienyl)furan]", "values": [{"measurement": "increase in dermal thickness", "setting": "biopsy after 60 days vs baseline, daily capsule 3% in avocado oil, control vehicle 7%", "value": 53, "unit": "%"}, {"measurement": "increase in epidermal thickness", "setting": "biopsy after 60 days vs baseline, daily capsule 3% in avocado oil, control vehicle 9%", "value": 76, "unit": "%"}, {"measurement": "Dermal fibroblast population (cross section) increase", "setting": "[1]", "value": 231, "unit": "%"}, {"measurement": "Dermal fibroblast population (number) increase", "setting": "[1]", "value": 127, "unit": "%"}, {"measurement": "increase in aerobic glucose utilization or metabolism", "setting": "[1]", "value": 413, "unit": "%"}, {"measurement": "increase in total thickness (epidermal and dermal combined)", "setting": "[1]", "value": 156, "unit": "%"}, {"measurement": "DNA content increase over control", "setting": "[2]", "value": 68, "unit": "%"}, {"measurement": "Dermal collagen content increase over control", "setting": "[2]", "value": 74, "unit": "%"}, {"measurement": "Protein content increase over control", "setting": "[2]", "value": 122, "unit": "%"}, {"measurement": "inflammatory response", "setting": "biopsy after 60 days, daily topical capsule, Formula I(n) (3%) and avocado oil", "value": "No observable inflammatory response"}, {"measurement": "dermal and epidermal thickness, dermal collagen content, number of cells, dermal and epidermal protein content, overall dermal metabolism", "setting": "topical administration, summary statement", "value": "increased"}]}
